For this experiment, the target named is T1, hedgehog acyltransferase (Hhat) (Homo sapiens, UniProt Q5VTY9).
T1 construct: Hhat-3C-FLAG-His8 (cDNA base pairs 4 to 1479), DDM-solubilized P100 membrane fraction from HEK293a cells
Put plainly: stopped click-ELISA kinetics, apparent Km at […] Shh([…]). In kind it is cell-based.

Structures are written as SMILES.

T1 sequence (Q5VTY9 2-493): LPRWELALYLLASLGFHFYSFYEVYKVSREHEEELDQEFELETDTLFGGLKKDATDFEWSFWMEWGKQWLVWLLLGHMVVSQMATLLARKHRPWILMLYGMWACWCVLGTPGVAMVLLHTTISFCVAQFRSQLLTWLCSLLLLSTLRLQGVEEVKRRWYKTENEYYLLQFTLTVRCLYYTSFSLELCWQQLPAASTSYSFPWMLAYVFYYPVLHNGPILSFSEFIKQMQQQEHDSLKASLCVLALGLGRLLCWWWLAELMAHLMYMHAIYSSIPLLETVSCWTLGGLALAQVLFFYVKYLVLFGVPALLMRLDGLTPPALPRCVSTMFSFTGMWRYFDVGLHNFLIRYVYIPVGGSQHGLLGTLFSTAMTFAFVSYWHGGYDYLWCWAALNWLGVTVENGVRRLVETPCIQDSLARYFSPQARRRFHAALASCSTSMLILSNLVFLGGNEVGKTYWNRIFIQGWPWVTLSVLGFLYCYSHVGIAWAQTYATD

Take `C#CCCCCCCCCCCCCC(=O)SCCNC(=O)CCNC(=O)[C@H](O)C(C)(C)COP(=O)(O)OP(=O)(O)OC[C@H]1O[C@@H](n2cnc3c(N)ncnc32)[C@H](O)[C@@H]1OP(=O)(O)O` [YnC15-CoA]: the Km turned out to be 0.15 ± 0.05 µM.
